{"source": "patent US8852601B2", "about": "“Method of stimulating growth and resistance to diseases of aquatic organisms” (Centro de Ingenieria Genetica y Biotecnologia, priority 2002, dated 2014)", "key": {"serum GH": {"test_system": "serum GH", "experiment": "Serum GH levels in tilapia injected with GHRP-6 (ELISA)", "type": "in vivo", "settings": "15 min after intraperitoneal injection, 0.1 μg/gbw", "experimental": "(§1) Fifteen tilapias with average weight 71±28 g were used for the experiment. The GHRP-6 was injected with hexapeptide at 0.1 μg/gbw. The liver and blood samples were drawn before the treatment and 15 min, 30 min, 1 h and 6 h after the peptide injection (three animals per group). The serum and liver sample were collected and stored at −70° C. until used for total RNA isolation and Northern blot analysis. A serum sample was also taken before the treatment in all animals.\nSerum GH levels were determined by ELISA using two monoclonal antibodies against tilapia GH (Muñoz et al, in preparation)."}, "tilapia IGF mRNA": {"test_system": "tilapia IGF mRNA", "experiment": "Hepatic IGF mRNA levels in tilapia injected with GHRP-6 (Northern blot)", "type": "in vivo", "settings": "0.1 μg/gbw", "experimental": "as §1\nNorthern blot analysis was used to measure the relative IGF mRNA levels in tilapia injected with the peptide. Total RNA was purified from liver samples as described by Chomczynski and Sacchi (Chomczynski P, Sacchi N. Single step method of RNA isolation by acid guanidium thiocyanate-phenol-chloroform extraction. Anal Biochem 1987; 162:156-59). Twenty μg of RNA were fractionated on 1% formaldehyde agarose gels and transferred to nylon membranes (Hybond N, Amersham UK) and hybridized with a tilapia IGF-I cDNA probe and subsequently rehybridized with a human gliceraldehyde 3 phosphate dehydrogenase cDNA (GAPDH, kindly given by Dr. Bryan Williams, Cleveland Foundation, OH, USA) to normalize the signals. Hybridization signals were quantified by digital image processing of scanned gels with a Hewlett Packard Scanjet Plus scanner. Images were processed with the Bandleader computer program. […]"}, "juvenile tilapia [1]": {"test_system": "juvenile tilapia", "experiment": "Growth promoting activity in juvenile tilapia, intraperitoneal injection", "type": "in vivo, Oreochromis aureus", "settings": "intraperitoneal 0.1 μg/gbw twice a week, three weeks; P<0.05", "experimental": "Juvenile hybrid tilapia (Oreochromis aureus) supplied by the Aquadique Aquaculture Station (Havana, Cuba) were acclimated in a 500 litters tank with re-circulating freshwater at 25° C. with constant photoperiod (14 hours light and 10 hours darkness) and fed with commercially prepared pellets (CENPALAB, Havana, Cuba). Daily rations equivalent to 5% of body weight were administered twice a day until they were used in the experiments.\nGHRP-6 (BACHEM, Switzerland) was diluted in PBS and injected twice a week during three weeks at 0.1 μg per gram of fish body weight (gbw). The peptide was administered to a group of eight male tilapia with average body weight of 61±14.3 g and seven male tilapia with average body weight of 61.41±29.67 g were injected with PBS as a control group.\n(§2) Body weight in grams was measured weekly. In all the experiments the animals were labeled with microchips (Stoelting Co. Wood Dale, U.S.A.)."}, "juvenile tilapia [2]": {"test_system": "juvenile tilapia", "experiment": "Growth promoting activity in juvenile tilapia, oral intubation (non encapsulated and encapsulated peptide)", "type": "in vivo, Oreochromis aureus", "experimental": "as §2\nGHRP-6 peptide was diluted in phosphate buffered saline (PBS) and administered through a plastic tube to the pharyngeal cavity to a group of seven male tilapia with average body weight 87.22±14.1 g. PBS was delivered to the control group (n=7, all male tilapia) with average weight 89.22±7.66 g. The treatment was done twice a week during three weeks at 0.1 μg/gbw. Body weight in grams was measured weekly. (FIG. 3)\nFor the encapsulation of peptide the capsules were obtained as previously reported by Knorr et al., 1988; using chitosan and alginic acid encapsulated peptide. The hexapeptide GHRP-6 was administered through a plastic tube to the pharyngeal cavity to seven male tilapia with average body weight 89.09±8.38 g. Polymer beads without peptide were administered to seven male tilapia with average weight 89.86±13.54 g as a control group. The treatment was performed twice a week at 0.14 μg/gbw. (FIG. 4)"}, "tilapia [3]": {"test_system": "tilapia", "experiment": "Weigh of tilapia treated with GHRP-6 by immersion", "type": "in vivo, Oreochromis aureus", "settings": "for Mean weigh ± DS: once a week for 45 days", "experimental": "(§3) Tilapias (Oreochromis aureus) of 1.5 g of mean weigh were treated by immersion with two different doses of GHRP-6 (10 μg/100 ml and 100 μg/100 ml). A similar control group was treated with physiological solution.\n(§4) In the experiment was measured the weigh (Table 1), biochemical blood parameters (Table 2), number of parasite in gill (Trichodinicos (Table 3) y Helmintos mongeneos (Table 4)) and humidity and protein concentration in muscle\n(§5) Fifteen animals per group (3×) with mean weigh of 1 g were selected for the assay. In 9 tank of 40 liters were developed the experiment. One a week application was done for 45 days.\n(§6) • Group I 10 μg/100 ml (Treatment 1) • Group II 100 μg/100 ml (Treatment 2) • Group III Control (Physiological solution)"}, "protozoo Trichodina sp.": {"test_system": "protozoo Trichodina sp.", "experiment": "Invasion intensity and extension of Trichodina sp. in tilapia treated by immersion", "type": "in vivo", "experimental": "as §3, §4, §5, §6"}, "Helmintos monogeneos": {"test_system": "Helmintos monogeneos", "experiment": "Invasion intensity and extension of Helmintos monogeneos in the gill of tilapia treated by immersion", "type": "in vivo", "settings": "for I: Invasion intensity: in the gill per fish", "experimental": "as §3, §4, §5, §6"}, "tilapia [4]": {"test_system": "tilapia", "experiment": "Humidity and protein concentration in muscle of tilapia treated by immersion", "type": "in vivo, Oreochromis aureus", "experimental": "as §3, §4, §5, §6"}, "[5]": {"test_system": "shrimp Litopenaeus schmitti larvae", "experiment": "Growth promoting activity in shrimp larvae treated by immersion", "type": "in vivo", "experimental": "Three different doses of GHRP-6 were applied by immersion to groups or shrimp larvae. The application was made each three days. Four applications were made for each group, including one control group receiving bovine serum albumin (BSA). The treatment was made per 1 hour to a concentration of GHRP-6 per liter of seawater as follow: • Group 1: 0.001 mg/L • Group 2: 0.01 mg/L • Group 3: 0.1 mg/L • Group 4: 1 mg of BSA/L"}, "[6]": {"test_system": "larvae shrimp Litopeneaus schmitti", "experiment": "Shrimp larvae treated by immersion in production conditions", "type": "in vivo, Litopenaeus schmitti", "settings": "production condition, vs non-treated group", "excerpt": "FIG. 8. Growth rate of larvae shrimp Litopeneaus schmitti in production conditions treated with GHRP-6 by immersion. The experiment was follow by six week. ***t-test p<0.001. Bars indicate standard error\nIn production condition the survival rate of the larvae was increased in 20% in the group treated with the GHRP-6 in comparison with the non-treated group. […] On the other hand the uniformity of the animals was higher in the group treated with the hexapeptide and the variation coefficient was lower in weigh and size (FIG. 8)."}, "[7]": {"settings": "Grupo I, immersion 10 μg/100 mL"}, "[8]": {"settings": "Grupo II, immersion 100 μg/100 mL"}, "[9]": {"settings": "comparison II-III (100 μg/100 mL vs saline), significant"}, "[10]": {"settings": "comparison III-I (saline vs 10 μg/100 mL), significant"}, "[11]": {"settings": "comparison III-I (saline vs 10 μg/100 mL)"}, "[12]": {"settings": "0.1 mg/L immersion, statistically significant"}, "[13]": {"settings": "0.1 mg/L, four 1 hour immersions, each three days, vs BSA control"}}, "note": "Marks after values point to notes of the source that are not given here. Non-standard residues stand in square brackets, D forms with d. No end group written: not given here."}
{"substance": "His-D-Trp-Ala-Trp-D-Phe-Lys-NH2 (H[dW]AW[dF]K-NH2) [GHRP-6, known GH releasing hexapeptide (GH secretagogue), bought from BACHEM]", "values": [{"measurement": "serum GH levels", "setting": "serum GH", "value": "increased"}, {"measurement": "level of hepatic IGF mRNA", "setting": "tilapia IGF mRNA; 30 min after intraperitoneal injection", "value": "increased significantly"}, {"measurement": "level of hepatic IGF mRNA", "setting": "tilapia IGF mRNA; six hours after intraperitoneal injection", "value": "backing to the normal value"}, {"measurement": "growth (increase in growth rate) vs control", "setting": "juvenile tilapia [1]", "value": "significantly stimulated growth"}, {"measurement": "body weight gain, encapsulated vs non encapsulated orally intubated treatment", "setting": "juvenile tilapia [2]; comparison between both oral treatments, P<0.05", "value": "higher body weight gain"}, {"measurement": "body weight to the end of the treatment vs control", "setting": "juvenile tilapia [2]; orally intubated encapsulated peptide", "value": "statistically differences in the body weight"}, {"measurement": "Mean weigh ± DS", "setting": "tilapia [3]; [7]", "value": "4.56 ± 1.07", "unit": "g"}, {"measurement": "Mean weigh ± DS", "setting": "tilapia [3]; [8]", "value": "4.54 ± 1.38", "unit": "g"}, {"measurement": "Statistically difference, mean weigh", "setting": "tilapia [3]; comparison I-II (10 vs 100 μg/100 mL)", "value": 0.01454}, {"measurement": "Statistically difference, mean weigh", "setting": "tilapia [3]; [9]", "value": "1.072*"}, {"measurement": "Statistically difference, mean weigh", "setting": "tilapia [3]; [10]", "value": "1.086*"}, {"measurement": "E: Invasion extension", "setting": "protozoo Trichodina sp.; [7]", "value": 100, "unit": "%"}, {"measurement": "I: Invasion intensity", "setting": "protozoo Trichodina sp.; [7]", "value": 7.73}, {"measurement": "E: Invasion extension", "setting": "protozoo Trichodina sp.; [8]", "value": 84.6, "unit": "%"}, {"measurement": "I: Invasion intensity", "setting": "protozoo Trichodina sp.; [8]", "value": 2.80}, {"measurement": "Statistically difference, Trichodina sp. invasion", "setting": "protozoo Trichodina sp.; comparison I-II", "value": "(4.42)"}, {"measurement": "Statistically difference, Trichodina sp. invasion", "setting": "protozoo Trichodina sp.; [9]", "value": "(5.84)*"}, {"measurement": "Statistically difference, Trichodina sp. invasion", "setting": "protozoo Trichodina sp.; [11]", "value": "(1.42)"}, {"measurement": "E: Invasion extension", "setting": "Helmintos monogeneos; [7]", "value": 34.7, "unit": "%"}, {"measurement": "I: Invasion intensity", "setting": "Helmintos monogeneos; [7]", "value": 0.39}, {"measurement": "E: Invasion extension", "setting": "Helmintos monogeneos; [8]", "value": 50, "unit": "%"}, {"measurement": "I: Invasion intensity", "setting": "Helmintos monogeneos; [8]", "value": 0.66}, {"measurement": "Statistically difference, Helmintos monogeneos invasion", "setting": "Helmintos monogeneos; comparison I-II", "value": "(0.304)"}, {"measurement": "Statistically difference, Helmintos monogeneos invasion", "setting": "Helmintos monogeneos; comparison II-III (100 μg/100 mL vs saline)", "value": "(0.521)"}, {"measurement": "Statistically difference, Helmintos monogeneos invasion", "setting": "Helmintos monogeneos; [10]", "value": "(0.826)*"}, {"measurement": "Mean humidity ± SD in muscle", "setting": "tilapia [4]; [7]", "value": "82.96 ± 3.63", "unit": "%"}, {"measurement": "Mean humidity ± SD in muscle", "setting": "tilapia [4]; [8]", "value": "83.5 ± 3.31", "unit": "%"}, {"measurement": "Statistically difference, humidity in muscle", "setting": "tilapia [4]; comparison I-II", "value": "(0.791)"}, {"measurement": "Statistically difference, protein concentration", "setting": "tilapia [4]; comparison I-II, significant", "value": "(1.160)*"}, {"measurement": "Statistically difference, humidity in muscle", "setting": "tilapia [4]; [9]", "value": "(2.666)*"}, {"measurement": "Statistically difference, protein concentration", "setting": "tilapia [4]; [9]", "value": "(1.38)*"}, {"measurement": "Statistically difference, humidity in muscle", "setting": "tilapia [4]; [11]", "value": "(3.458)"}, {"measurement": "Statistically difference, protein concentration", "setting": "tilapia [4]; [10]", "value": "(2.64)*"}, {"measurement": "number of bone rostral", "setting": "[5]; [12]", "value": "increase"}, {"measurement": "number of gill ramifications", "setting": "[5]; [12]", "value": "increase"}, {"measurement": "increase of mean size", "setting": "[5]; [13]", "value": 26, "unit": "%"}, {"measurement": "increase of mean weigh", "setting": "[5]; [13]", "value": 153, "unit": "%"}, {"measurement": "relation Protein/DNA in muscle", "setting": "[5]; all treated animals vs control", "value": "increased"}, {"measurement": "relation RNA/DNA in muscle", "setting": "[5]; all treated animals vs control", "value": "increased"}, {"measurement": "water content in the muscle", "setting": "[5]; all treated animals vs control", "value": "lower water content in the muscle"}, {"measurement": "increase of size", "setting": "[6]", "value": 37, "unit": "%"}, {"measurement": "increase of survival rate of the larvae", "setting": "[6]", "value": 20, "unit": "%"}, {"measurement": "increase of weigh", "setting": "[6]", "value": 115, "unit": "%"}, {"measurement": "uniformity of the animals", "setting": "[6]", "value": "higher"}, {"measurement": "variation coefficient in weigh and size", "setting": "[6]", "value": "lower"}]}
